The numbers were not newly measured in US20080176908A1, “Method of using squalene monooxygenase inhibitors to treat acne” (priority 2007, published 2008), which cites them from elsewhere.

The conditions of the series: compared with 2.5% hydrocortisone; test details not given.

`Cc1cc(C2CCCCC2)n(O)c(=O)c1` [Ciclopirox, 6-cylcohexyl-1-hydroxy-4-methyl-pyridin-2-one]: the anti-inflammatory ability result is recorded as “greater anti-inflammatory ability than 2.5% hydrocortisone”. Consider `CN(C/C=C/c1ccccc1)Cc1cccc2ccccc12` [naftifine, (E)-N-cinnamyl-N-methyl-1-naphthalenemethylamine], for which the anti-inflammatory ability entry is “greater anti-inflammatory ability than 2.5% hydrocortisone”. On to `CN(CC=CC#CC(C)(C)C)Cc1cccc2ccccc12` [terbinafine, N,6,6-trimethyl-N-(naphthalene-1-ylmethyl)hept-2-en-4-yn-1-amine], for which the anti-inflammatory ability entry is reported as “greater anti-inflammatory ability than 2.5% hydrocortisone”.
